Measured values as given in paper PMC9266460, “KSK-74: Dual Histamine H3 and Sigma-2 Receptor Ligand with Anti-Obesity Potential” (International Journal of Molecular Sciences, 2022).

Columns and labels:
H3 histamine receptor [1] = target: T1, H3 histamine receptor (Homo sapiens, UniProt Q9Y5N1); assay: Intrinsic activity at H3R, Aequoscreen assay; format: cell-based
Experimental: (§1) Intrinsic activity studies were performed using two methods, Aequoscreen and LANCE Ultra cAMP assays, according to the manufacturer of the ready-to-use cells with stable expressions of the H3 histamine receptor (Perkin Elmer).
The Aequoscreen technology uses recombinant cell lines with stable co-expression of apoaequorin and a GPCR as a system to detect activation of the receptor, following the addition of an agonist, via the measurement of light emission. For the measurement, cells (frozen, ready to use) were thawed and resuspended in 10 mL of assay buffer containing 5 μM of coelenterazine h. The cell suspension was then placed in a 10 mL Falcon tube, fixed on a rotating wheel, and incubated overnight at RT° in the dark. Cells were diluted with assay buffer at 5000 cells/20 µL. Agonistic ligands 2 × (50 μL/well), diluted in assay buffer, were prepared in 1/2 area white polystyrene plates, and 50 μL of cell suspension was dispersed on the ligands using the injector. The light emission was recorded for 20 s. Cells were incubated with antagonist for 15 min at RT°. Then, 50 µL of agonist (final concentration equal to 3 × EC80) was injected into the mixture of cells and antagonist and light emission was recorded for 20 s.

[2] = test system: rats fed a palatable diet; assay: Intraperitoneal glucose tolerance test; format: in vivo, female Wistar rats; conditions: 10 mg/kg; for blood glucose levels after glucose load vs control animals fed palatable feed: glucose 1 g/kg i.p., 29th day
Experimental: The test was conducted on the 29th day of the experiment. After twenty-eight administrations of the test compounds, the food was stopped for 20 h and then glucose tolerance was tested. Glucose (1 g/kg b.w.) was administered i.p.. Blood samples were obtained from the tail vein at the time points 0 (before glucose administration), 30, 60, and 120 min after administration. Glucose levels were measured with a glucometer (ContourTS, Bayer, Leverkusen, Germany, test stripes: ContourTS, Ascensia Diabetes care Poland Sp. z o. o., Poland, REF:84239666). The area under the curve (AUC) was calculated using the trapezoidal rule.

H3 histamine receptor [3] = target: T1, H3 histamine receptor; assay: Intrinsic activity at H3R, LANCE Ultra cAMP assay; format: cell-based
Experimental: as §1
The assay is based on the competition between the europium (Eu) chelate-labeled cAMP tracer and sample cAMP for binding sites on cAMP-specific monoclonal antibodies labeled with the ULight dye.

adipose tissue = assay: Histological examination of adipose tissue (Masson's trichrome); format: in vivo, female Wistar rats; conditions: palatable diet; for inflammatory infiltrates in adipose tissue (histological description) / number of adipocytes per 0.1 mm^2 of cross-sectional area / inflammatory index of the adipose tissue: KSK 10 mg/kg, phentermine 7 mg/kg; for number of adipocytes per 0.1 mm^2 of cross-sectional area: means ± SD, n = 6; for inflammatory index of the adipose tissue: standard diet + vehicle 0.5 ± 0.34
Experimental: Adipose tissue samples were prepared for histology using Masson’s trichrome stain (Merck) by fixation in 4% formaldehyde, dehydration in graded alcohol, and embedded in paraffin. The tissue samples were then sectioned using a microtome of 5 μm thickness. Six random fields from each section were analyzed in a blinded manner with an Olympus BX41 light microscope (Olympus, Tokyo, Japan) at magnifications of ×20, ×40 and ×100, and digital images were captured with an Olympus UC90 color camera. The quantitation of the number of adipocytes was performed in eight fields/slide with ×100 objective using an image analysis system: CellSensDimension (Olympus, Tokyo, Japan). The numerical density of the adipocytes was obtained by counting the total number of adipocytes per high-power field ([…]), and then this number was converted to 0.1 mm^2. According to stereometric rules, adipocytes tangent to the left and top edges of the image field were not counted. A semi-quantitative scale was used to assess the inflammatory response in adipose tissue. The following were evaluated on a subjective scale: inflammatory cell infiltration between adipocytes (0—normal, 1—few cells, 2—local clusters, and 3—extensive infiltrates), perivascular infiltration of immune cells (0—normal, 1—few cells, and 2—ring of inflammatory cells), widening of the septum (0—normal and 1—widening), and capillary congestion (0—normal and 1—congestion). A sum calculated from independently assessed values was calculated for each animal as an index of inflammation.

sigma-2 receptor = target: sigma-2 receptor; design: method as in PMID 34908391; conditions: Figure 1; read-out: σ2R Ki; cited from earlier work
[4] = test system: rats fed a palatable diet; assay: Plasma triglyceride and corticosterone levels in the model of excessive eating; format: in vivo, female Wistar rats; conditions: KSK 10 mg/kg, phentermine 7 mg/kg
Experimental: Blood was collected from the left carotid artery and then centrifuged at 600× g (15 min, 4 °C) to obtain plasma.
To determine plasma triglyceride levels, standard enzymatic and spectrophotometric tests (Cat. No 1-053-A150, Biomaxima S.A., Lublin, Poland) were used. The ELISA Kit (Item No. 501320, Cayman Chemical, Ann Arbor, MI, USA) was used to determine corticosterone levels in plasma.

[5] = test system: peritoneal adipose tissue; assay: Leptin, resistin, IL-6 and MCP-1 levels in adipose tissue (ELISA); format: in vivo, female Wistar rats; conditions: for leptin levels in adipose tissue: vs palatable diet + vehicle unless worded otherwise
Experimental: The frozen peritoneal adipose tissue was weighed, and homogenates were prepared by homogenizing 1 g of tissue in 4 mL of 0.1 M phosphate buffer, pH 7.4, using the IKA-ULTRA-TURRAX T8 homogenizer. The adipose tissue homogenates were then used for biochemical assays.
To determine the levels of leptin, resistin, IL-6, and MCP-1 in adipose tissue, the standard ELISA Kit (Cat. No E0561Ra, Cat. No E0211Ra, Cat. No E0135Ra, Cat. No E0193Ra, Bioassay Technology Laboratory, Shanghai, China) was used. To determine the levels of protein, a standard spectrophotometric test (Cat. No 1-008-B210, Biomaxima S.A. Lublin, Poland) was used.

[6] = KSK 10 mg/kg i.p., phentermine 7 mg/kg

T1 sequence (Q9Y5N1 whole entry): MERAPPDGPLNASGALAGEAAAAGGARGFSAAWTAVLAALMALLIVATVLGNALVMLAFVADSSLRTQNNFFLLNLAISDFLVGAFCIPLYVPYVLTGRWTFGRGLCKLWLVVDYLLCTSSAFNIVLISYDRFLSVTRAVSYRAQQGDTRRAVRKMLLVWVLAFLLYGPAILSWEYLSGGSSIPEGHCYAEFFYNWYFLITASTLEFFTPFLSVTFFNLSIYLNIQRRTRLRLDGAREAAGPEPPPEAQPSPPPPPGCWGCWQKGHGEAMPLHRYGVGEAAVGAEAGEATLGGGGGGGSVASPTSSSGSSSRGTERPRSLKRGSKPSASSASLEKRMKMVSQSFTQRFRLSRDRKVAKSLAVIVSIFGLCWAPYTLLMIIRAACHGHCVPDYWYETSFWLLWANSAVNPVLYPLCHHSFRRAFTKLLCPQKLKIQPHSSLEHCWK

Structure (SMILES)	IC50 (H3 histamine receptor [1])	area under the IPGTT curve (AUC) vs rats fed high-calorie feed [2]	blood glucose levels after glucose load vs control animals fed palatable feed [2]	IC50 (H3 histamine receptor [3])	inflammatory infiltrates in adipose tissue (histological description) (adipose tissue)	number of adipocytes per 0.1 mm^2 of cross-sectional area (adipose tissue)	inflammatory index of the adipose tissue (adipose tissue)	number of rats, Capillary Congestion grade 0-Normal (adipose tissue; n = 6 per group)	number of rats, Capillary Congestion grade 1-Congestion (adipose tissue; n = 6 per group)	number of rats, Inflammatory Cell Infiltration grade 1-Few Cells (adipose tissue; n = 6 per group)	number of rats, Inflammatory Cell Infiltration grade 2-Local Clusters (adipose tissue; n = 6 per group)	number of rats, Perivascular Infiltration grade 1-Few Cells (adipose tissue; n = 6 per group)	number of rats, Perivascular Infiltration grade 2-Ring of Cells (adipose tissue; n = 6 per group)	number of rats, Widening of the Septum grade 0-Normal (adipose tissue; n = 6 per group)	number of rats, Widening of the Septum grade 1-Widening (adipose tissue; n = 6 per group)	Ki (sigma-2 receptor)	plasma triglyceride levels vs palatable diet + vehicle [4]	leptin levels in adipose tissue [5, 6]	further results
CCC(=O)c1ccc(OCCCCCCN2CCN(c3ccncc3)CC2)cc1 [KSK-60]	1.49 ± 0.2 nM	decreased significantly	significantly lower at 30 or/and 60 min after glucose load	0.78 ± 0.1 nM	Many inflammatory cells infiltrated the area of adipocytes and the perivascular area	18.02 ± 1.38 per 0.1 mm^2	4.5 ± 0.80	2	4	2	4	2	4	1	5	110 nM	No differences in plasma triglyceride levels	maintained leptin levels at the same level as rats in the control group fed standard feed	–
CCC(=O)c1ccc(OCCCCCCCCN2CCN(c3ccncc3)CC2)cc1 [KSK-74]	31.9 ± 0.5 nM	decreased significantly	significantly lower at 30 or/and 60 min after glucose load	23.2 ± 3.6 nM	slightly less inflammatory infiltrates	34.78 ± 4.78 per 0.1 mm^2	comparable to the standard control	5	1	3	2	1	3	3	3	65.9 nM	lower plasma triglyceride levels	reduced levels	number of rats, Inflammatory Cell Infiltration grade 0-Normal (adipose tissue; n = 6 per group): 1; number of rats, Perivascular Infiltration grade 0-Normal (adipose tissue; n = 6 per group): 2; IL-6 levels in adipose tissue vs palatable diet + vehicle ([5]; 10 mg/kg): reduced; MCP-1 level in adipose tissue vs palatable diet + vehicle ([5]; 10 mg/kg b.w.): decreased the level of MCP-1; resistin levels in adipose tissue vs palatable diet + vehicle [5, 6]: reduced levels
